Results from patent publication US12492188B2, “1H-benzo[D]imidazole derivatives as TLR9 inhibitors for the treatment of fibrosis” (BRISTOL-MYERS SQUIBB COMPANY, priority 2020, dated 2025).
Where two headings read alike, the source gives them in different places.

How the values were obtained:
Assay type in all cases: cell-based
human TLR9 = target: T1, human TLR9 (Homo sapiens, UniProt Q9NR96); assay: TLR9 inhibition reporter assay (HEK-Blue cells, secreted embryonic alkaline phosphatase reporter); conditions: HEK-Blue cells overexpressing human TLR9, stimulated with ODN2006 5 nM
T1 construct: host or cells: HEK-Blue cells (HEK293-derived reporter line)
T1 sequence (Q9NR96 26-1032): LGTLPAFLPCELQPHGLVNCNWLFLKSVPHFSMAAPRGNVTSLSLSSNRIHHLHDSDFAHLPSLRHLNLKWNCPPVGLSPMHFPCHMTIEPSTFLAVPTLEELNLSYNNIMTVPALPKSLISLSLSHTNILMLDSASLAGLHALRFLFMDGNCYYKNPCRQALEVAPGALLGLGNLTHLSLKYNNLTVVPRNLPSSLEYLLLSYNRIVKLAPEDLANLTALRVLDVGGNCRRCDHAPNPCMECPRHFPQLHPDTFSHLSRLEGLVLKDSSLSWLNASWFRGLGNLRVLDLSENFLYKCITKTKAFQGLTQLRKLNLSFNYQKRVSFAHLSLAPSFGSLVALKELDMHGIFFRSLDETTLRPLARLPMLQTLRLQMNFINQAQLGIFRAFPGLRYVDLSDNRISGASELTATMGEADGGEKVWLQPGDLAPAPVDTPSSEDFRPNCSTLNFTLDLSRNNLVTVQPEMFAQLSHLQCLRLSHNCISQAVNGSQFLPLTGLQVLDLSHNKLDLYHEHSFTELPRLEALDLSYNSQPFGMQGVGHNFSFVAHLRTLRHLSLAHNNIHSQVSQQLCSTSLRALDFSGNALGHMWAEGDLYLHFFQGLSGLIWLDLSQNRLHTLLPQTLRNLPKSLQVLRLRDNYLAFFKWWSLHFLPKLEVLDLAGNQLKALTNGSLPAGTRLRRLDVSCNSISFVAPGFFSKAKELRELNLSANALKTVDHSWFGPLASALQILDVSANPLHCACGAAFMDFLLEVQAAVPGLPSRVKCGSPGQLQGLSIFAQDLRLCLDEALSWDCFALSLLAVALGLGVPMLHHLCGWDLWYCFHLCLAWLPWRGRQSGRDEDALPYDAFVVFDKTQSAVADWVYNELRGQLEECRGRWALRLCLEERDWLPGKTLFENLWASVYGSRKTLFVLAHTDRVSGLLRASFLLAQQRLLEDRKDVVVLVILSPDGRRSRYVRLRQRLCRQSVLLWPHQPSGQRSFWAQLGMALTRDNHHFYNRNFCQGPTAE
In short: (§1)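 HEK-Blue cells overexpressing the respective receptor, with an NF-κB/AP-1-driven SEAP reporter, were pre-treated with compound (0.05 nM–50 μM) for 30 min at room temperature. Stimulation used gardiquimod 7.5 μM (TLR7), R848 15.9 μM (TLR8) or ODN2006 5 nM (TLR9); SEAP was read after 22 h at 37 °C as percent inhibition.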

human TLR8 = target: T2, human TLR8 (Homo sapiens, UniProt Q9NR97); assay: TLR8 inhibition reporter assay (HEK-Blue cells, secreted embryonic alkaline phosphatase reporter); conditions: HEK-Blue cells overexpressing human TLR8, stimulated with R848 15.9 μM; read-out: TLR 8 IC50
T2 construct: host or cells: HEK-Blue cells (HEK293-derived reporter line)
T2 sequence (Q9NR97 27-1041): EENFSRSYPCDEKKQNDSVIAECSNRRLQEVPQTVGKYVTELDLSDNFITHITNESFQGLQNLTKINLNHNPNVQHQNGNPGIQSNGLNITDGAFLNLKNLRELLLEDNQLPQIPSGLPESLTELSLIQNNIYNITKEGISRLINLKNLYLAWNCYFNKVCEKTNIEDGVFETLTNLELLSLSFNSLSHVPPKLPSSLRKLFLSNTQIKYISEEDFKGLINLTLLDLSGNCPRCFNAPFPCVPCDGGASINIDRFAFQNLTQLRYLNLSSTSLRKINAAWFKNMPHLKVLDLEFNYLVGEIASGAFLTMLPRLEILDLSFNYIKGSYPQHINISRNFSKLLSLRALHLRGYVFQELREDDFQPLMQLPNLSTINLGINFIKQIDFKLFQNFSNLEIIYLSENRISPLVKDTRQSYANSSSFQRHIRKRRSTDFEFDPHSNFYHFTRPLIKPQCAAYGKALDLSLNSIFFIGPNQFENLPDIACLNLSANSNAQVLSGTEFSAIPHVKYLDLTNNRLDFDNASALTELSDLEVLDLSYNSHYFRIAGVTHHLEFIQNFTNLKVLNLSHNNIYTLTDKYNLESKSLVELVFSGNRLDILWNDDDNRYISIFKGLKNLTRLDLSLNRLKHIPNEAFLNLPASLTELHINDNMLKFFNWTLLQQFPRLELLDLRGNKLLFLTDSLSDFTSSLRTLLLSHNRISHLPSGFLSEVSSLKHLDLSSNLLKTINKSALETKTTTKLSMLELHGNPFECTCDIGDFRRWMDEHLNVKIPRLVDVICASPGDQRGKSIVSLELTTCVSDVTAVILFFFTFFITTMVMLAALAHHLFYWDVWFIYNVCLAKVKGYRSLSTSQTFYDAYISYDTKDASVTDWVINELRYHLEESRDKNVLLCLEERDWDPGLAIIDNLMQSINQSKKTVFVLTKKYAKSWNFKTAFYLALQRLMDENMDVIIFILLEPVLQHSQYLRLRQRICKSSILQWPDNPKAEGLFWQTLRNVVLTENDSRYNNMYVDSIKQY
In short: as §1

human TLR7 = target: T3, human TLR7 (Homo sapiens, UniProt Q9NYK1); assay: TLR7 inhibition reporter assay (HEK-Blue cells, secreted embryonic alkaline phosphatase reporter); conditions: HEK-Blue cells overexpressing human TLR7, stimulated with gardiquimod 7.5 μM; read-out: TLR 7 IC50
T3 construct: host or cells: HEK-Blue cells (HEK293-derived reporter line)
T3 sequence (Q9NYK1 27-1049): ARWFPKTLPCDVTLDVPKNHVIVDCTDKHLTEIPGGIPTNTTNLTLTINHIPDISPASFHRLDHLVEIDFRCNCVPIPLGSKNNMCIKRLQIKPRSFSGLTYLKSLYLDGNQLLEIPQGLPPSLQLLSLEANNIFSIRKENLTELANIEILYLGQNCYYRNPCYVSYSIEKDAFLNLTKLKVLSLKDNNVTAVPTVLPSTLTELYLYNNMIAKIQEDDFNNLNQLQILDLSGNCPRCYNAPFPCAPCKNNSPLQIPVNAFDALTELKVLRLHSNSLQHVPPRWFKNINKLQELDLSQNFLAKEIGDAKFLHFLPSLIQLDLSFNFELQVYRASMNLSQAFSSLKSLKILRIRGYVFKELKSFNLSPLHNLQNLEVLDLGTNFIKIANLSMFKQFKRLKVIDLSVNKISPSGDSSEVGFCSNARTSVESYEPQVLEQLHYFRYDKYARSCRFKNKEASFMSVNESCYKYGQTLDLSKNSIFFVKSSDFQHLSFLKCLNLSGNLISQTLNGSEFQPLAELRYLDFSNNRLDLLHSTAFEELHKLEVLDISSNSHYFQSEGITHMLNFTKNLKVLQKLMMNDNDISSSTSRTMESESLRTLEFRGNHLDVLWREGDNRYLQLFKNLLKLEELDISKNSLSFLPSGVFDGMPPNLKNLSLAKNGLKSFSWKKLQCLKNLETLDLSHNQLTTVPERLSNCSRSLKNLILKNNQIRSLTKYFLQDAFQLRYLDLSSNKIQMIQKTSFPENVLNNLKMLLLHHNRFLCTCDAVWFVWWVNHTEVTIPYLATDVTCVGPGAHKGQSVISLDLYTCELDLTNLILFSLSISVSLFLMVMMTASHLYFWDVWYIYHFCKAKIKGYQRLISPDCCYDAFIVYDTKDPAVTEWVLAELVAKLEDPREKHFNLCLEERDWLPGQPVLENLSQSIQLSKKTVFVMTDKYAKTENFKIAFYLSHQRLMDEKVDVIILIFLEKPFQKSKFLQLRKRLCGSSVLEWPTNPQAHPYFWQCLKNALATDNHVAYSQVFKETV
In short: as §1

[1] = 22 hour incubation, reporter readout

| Compound | IC50 (human TLR9; [1]) [µM] | IC50 (human TLR9; read-out: TLR 9 IC50) [µM] | IC50 (human TLR8) [µM] | IC50 (human TLR7) [µM] |
| --- | --- | --- | --- | --- |
| COc1ccc(-c2nc3ccc(C4CCN(C5CCN(C6CC6)CC5)CC4)cc3n2CC(F)F)cc1OC [Example 33, 6-(1′-cyclopropyl-[1,4′-bipiperidin]-4-yl)-1-(2,2-difluoroethyl)-2-(3,4-dimethoxyphenyl)-1H-benzo[d]imidazole] | 0.68 | 0.681 | 35 | 8.1 |
| COc1ccc(-c2nc3cc(C4CCN(C5CCN(C6CC6)CC5)CC4)ccc3n2C(C)C)cc1OC [Example 37, 5-(1′-cyclopropyl-[1,4′-bipiperidin]-4-yl)-2-(3,4-dimethoxyphenyl)-1-isopropyl-1H-benzo[d]imidazole] | 0.39 | 0.388 | > 50 | 7.5 |
| COc1ccc(-c2nc3cc(C4CCN(C5CCN(CC(C)C)CC5)CC4)ccc3n2CC(F)F)cc1OC [Example 38, 1-(2,2-difluoroethyl)-2-(3,4-dimethoxyphenyl)-5-(1′-isobutyl-[1,4′-bipiperidin]-4-yl)-1H-benzo[d]imidazole] | 0.21 | 0.208 | > 50 | 3.4 |
| COc1ccc(-c2nc3cc(C4CCN(C5CCN(C6CC6)CC5)CC4)ccc3n2CC(F)F)cc1OC [Example 39, 5-(1′-cyclopropyl-[1,4′-bipiperidin]-4-yl)-1-(2,2-difluoroethyl)-2-(3,4-dimethoxyphenyl)-1H-benzo[d]imidazole] | 0.59 | 0.59 | 30 | 6.4 |
| CCn1c(-c2ccc(OC)c(OC)c2)nc2cc(C3CCN(C4CCN(CC(C)C)CC4)CC3)ccc21 [Example 41, 2-(3,4-dimethoxyphenyl)-1-ethyl-5-(1′-isobutyl-[1,4′-bipiperidin]-4-yl)-1H-benzo[d]imidazole] | 0.4 | 0.404 | 1.6 | 3.7 |
| COc1ccc(-c2nc3cc(C4CCN(C5CCN(CC(C)C)CC5)CC4)c(C(F)(F)F)cc3[nH]2)cc1OC [Example 42, 2-(3,4-dimethoxyphenyl)-5-(1′-isobutyl-[1,4′-bipiperidin]-4-yl)-6-(trifluoromethyl)-1H-benzo[d]imidazole] | 0.26 | 0.255 | > 50 | 32 |

Continued by falling IC50 (human TLR9; [1]), values first:

| IC50 (human TLR9; [1]) [µM] | IC50 (human TLR9; read-out: TLR 9 IC50) [µM] | IC50 (human TLR8) [µM] | IC50 (human TLR7) [µM] | Compound |
| --- | --- | --- | --- | --- |
| 0.75 | 0.749 | > 50 | > 50 | COc1ccc(-c2nc3ccc(C4CCN(C5CCN(C6CC6)CC5)CC4)cc3n2C(C)C)cc1OC [Example 31, 6-(1′-cyclopropyl-[1,4′-bipiperidin]-4-yl)-2-(3,4-dimethoxyphenyl)-1-isopropyl-1H-benzo[d]imidazole] |
| 0.36 | 0.357 | 4.6 | 6.6 | COc1ccc(-c2nc3cc(C4CCN(C5CCN(CC(C)C)CC5)CC4)ccc3n2C(C)C)cc1OC [Example 36, 2-(3,4-dimethoxyphenyl)-5-(1′-isobutyl-[1,4′-bipiperidin]-4-yl)-1-isopropyl-1H-benzo[d]imidazole] |
| 0.25 | 0.254 | > 50 | 9.8 | COc1ccc(-c2nc3ccc(C4CCN(C5CCN(CC(C)C)CC5)CC4)cc3n2C(C)C)cc1OC [Example 30, 2-(3,4-dimethoxyphenyl)-6-(1′-isobutyl-[1,4′-bipiperidin]-4-yl)-1-isopropyl-1H-benzo[d]imidazole] |
| 0.21 | 0.212 | > 50 | 5.7 | COc1ccc(-c2nc3ccc(C4CCN(C5CCN(CC(C)C)CC5)CC4)cc3n2CC(F)F)cc1OC [Example 32, 1-(2,2-difluoroethyl)-2-(3,4-dimethoxyphenyl)-6-(1′-isobutyl-[1,4′-bipiperidin]-4-yl)-1H-benzo[d]imidazole] |
| 0.17 | 0.173 | > 50 | 16 | COc1ccc(-c2nc3cc(C4CCN(C5CCN(CC(C)C)CC5)CC4)ccc3n2C)cc1OC [Example 34, 2-(3,4-dimethoxyphenyl)-5-(1′-isobutyl-[1,4′-bipiperidin]-4-yl)-1-methyl-1H-benzo[d]imidazole] |
| 0.15 | 0.149 | 46 | 2.3 | CCn1c(-c2ccc(OC)c(OC)c2)nc2ccc(C3CCN(C4CCN(CC(C)C)CC4)CC3)cc21 [Example 40, 2-(3,4-dimethoxyphenyl)-1-ethyl-6-(1′-isobutyl-[1,4′-bipiperidin]-4-yl)-1H-benzo[d]imidazole] |
| 0.11 | 0.0112 | > 50 | 6.6 | COc1ccc(-c2nc3ccc(C4CCN(C5CCN(C6CC6)CC5)CC4)cc3[nH]2)cc1OC [Example 29, 6-(1′-cyclopropyl-[1,4′-bipiperidin]-4-yl)-2-(3,4-dimethoxyphenyl)-1H-benzo[d]imidazole] |
